According to the supplement of paper PMC10307832:

Key:
Test in all cases: relative viability (nuclei count vs DMSO), 5 days (fraction); higher = more cells survive
NCI-H23 = tested on: NCI-H23
Procedure, shortened: (§1)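 Relative viability was taken as the ratio of nuclei in treated wells to nuclei in vehicle wells. Lung cancer cell lines in 1536-well plates received compounds by pin tool one day after seeding, either one drug alone or a fixed anchor-drug dose plus five library-drug doses (not always all listed) in √10 steps. Nuclei were counted on 4× images after 5 days of treatment, and values are medians of duplicate plates.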

NCI-H727 = tested on: NCI-H727
Procedure, shortened: as §1

NCI-H1993 = tested on: NCI-H1993
Procedure, shortened: as §1

NCI-H2126 = tested on: NCI-H2126
Procedure, shortened: as §1

NCI-H647 = tested on: NCI-H647
Procedure, shortened: as §1

NCI-H2023 = tested on: NCI-H2023
Procedure, shortened: as §1

EMC-BAC-2 = tested on: EMC-BAC-2
Procedure, shortened: as §1

NCI-H650 = tested on: NCI-H650
Procedure, shortened: as §1

HARA = tested on: HARA
Procedure, shortened: as §1

NCI-H2347 = tested on: NCI-H2347
Procedure, shortened: as §1

HCC-44 = tested on: HCC-44
Procedure, shortened: as §1

LCLC-103H = tested on: LCLC-103H
Procedure, shortened: as §1

NCI-H522 = tested on: NCI-H522
Procedure, shortened: as §1

LOU-NH91 = tested on: LOU-NH91
Procedure, shortened: as §1

NCI-H838 = tested on: NCI-H838
Procedure, shortened: as §1

NCI-H1666 = tested on: NCI-H1666
Procedure, shortened: as §1

NCI-H2087 = tested on: NCI-H2087
Procedure, shortened: as §1

NCI-H3122 = tested on: NCI-H3122
Procedure, shortened: as §1

NCI-H2009 = tested on: NCI-H2009
Procedure, shortened: as §1

BEN = tested on: BEN
Procedure, shortened: as §1

NCI-H1395 = tested on: NCI-H1395
Procedure, shortened: as §1

201T = tested on: 201T
Procedure, shortened: as §1

NCI-H441 = tested on: NCI-H441
Procedure, shortened: as §1

CC(C)Oc1cc(Nc2nc(N[C@@H](C)c3ccc(F)cn3)ncc2Cl)n[nH]1 [AZ23] + CC(=O)c1c(C)c2cnc(Nc3ccc(N4CCNCC4)cn3)nc2n(C2CCCC2)c1=O [Palbociclib] (partner 0.5 µM)
relative viability (NCI-H23; first compound 0.03162 µM): 0.548
relative viability (NCI-H23; first compound 0.3162 µM): 0.512
relative viability (NCI-H727; first compound 0.01 µM): 0.59
relative viability (NCI-H727; first compound 0.03162 µM): 0.66
relative viability (NCI-H727; first compound 0.3162 µM): 0.619
relative viability (NCI-H1993; first compound 0.01 µM): 0.559
relative viability (NCI-H1993; first compound 0.03162 µM): 0.695
relative viability (NCI-H1993; first compound 0.3162 µM): 0.477
relative viability (NCI-H2126; first compound 0.01 µM): 0.332
relative viability (NCI-H2126; first compound 0.03162 µM): 0.335
relative viability (NCI-H2126; first compound 0.3162 µM): 0.342
relative viability (NCI-H647; first compound 0.01 µM): 0.408
relative viability (NCI-H647; first compound 0.03162 µM): 0.405
relative viability (NCI-H647; first compound 0.3162 µM): 0.466
relative viability (NCI-H2023; first compound 0.03162 µM): 0.369
relative viability (NCI-H2023; first compound 0.3162 µM): 0.264
relative viability (EMC-BAC-2; first compound 0.01 µM): 0.527
relative viability (EMC-BAC-2; first compound 0.03162 µM): 0.523
relative viability (EMC-BAC-2; first compound 0.3162 µM): 0.52
relative viability (NCI-H650; first compound 0.01 µM): 0.352
relative viability (NCI-H650; first compound 0.03162 µM): 0.309
relative viability (NCI-H650; first compound 0.3162 µM): 0.301
relative viability (HARA; first compound 0.01 µM): 0.254
relative viability (HARA; first compound 0.03162 µM): 0.156
relative viability (HARA; first compound 0.3162 µM): 0.213
relative viability (NCI-H2347; first compound 0.01 µM): 0.441
relative viability (NCI-H2347; first compound 0.03162 µM): 0.418
relative viability (NCI-H2347; first compound 0.3162 µM): 0.398
relative viability (HCC-44; first compound 0.01 µM): 0.982
relative viability (HCC-44; first compound 0.03162 µM): 0.994
relative viability (HCC-44; first compound 0.3162 µM): 0.93
relative viability (LCLC-103H; first compound 0.01 µM): 0.485
relative viability (LCLC-103H; first compound 0.03162 µM): 0.421
relative viability (LCLC-103H; first compound 0.3162 µM): 0.503
relative viability (NCI-H522; first compound 0.01 µM): 1.2
relative viability (NCI-H522; first compound 0.03162 µM): 1.01
relative viability (NCI-H522; first compound 0.3162 µM): 0.795
relative viability (LOU-NH91; first compound 0.01 µM): 0.574
relative viability (LOU-NH91; first compound 0.03162 µM): 0.544
relative viability (LOU-NH91; first compound 0.3162 µM): 0.546
relative viability (NCI-H838; first compound 0.01 µM): 0.227
relative viability (NCI-H838; first compound 0.03162 µM): 0.23
relative viability (NCI-H838; first compound 0.3162 µM): 0.247
relative viability (NCI-H1666; first compound 0.01 µM): 0.673
relative viability (NCI-H1666; first compound 0.03162 µM): 0.647
relative viability (NCI-H1666; first compound 0.3162 µM): 0.652
relative viability (NCI-H2087; first compound 0.01 µM): 0.255
relative viability (NCI-H2087; first compound 0.03162 µM): 0.21
relative viability (NCI-H2087; first compound 0.3162 µM): 0.22
relative viability (NCI-H3122; first compound 0.01 µM): 0.197
relative viability (NCI-H3122; first compound 0.03162 µM): 0.173
relative viability (NCI-H3122; first compound 0.3162 µM): 0.23
relative viability (NCI-H2009; first compound 0.01 µM): 0.2
relative viability (NCI-H2009; first compound 0.03162 µM): 0.185
relative viability (NCI-H2009; first compound 0.3162 µM): 0.196
relative viability (BEN; first compound 0.01 µM): 0.475
relative viability (BEN; first compound 0.03162 µM): 0.458
relative viability (BEN; first compound 0.3162 µM): 0.455
relative viability (NCI-H1395; first compound 0.03162 µM): 0.694
relative viability (NCI-H1395; first compound 0.3162 µM): 0.641
relative viability (201T; first compound 0.01 µM): 0.359
relative viability (201T; first compound 0.03162 µM): 0.38
relative viability (201T; first compound 0.3162 µM): 0.372
relative viability (NCI-H441; first compound 0.01 µM): 0.199
relative viability (NCI-H441; first compound 0.03162 µM): 0.198
relative viability (NCI-H441; first compound 0.3162 µM): 0.202
